Experimental data taken from publication PMC12481569, “Novltex: A New Class of Antibiotics with Potent Activity against Multidrug-Resistant Bacterial Pathogens–Design, Synthesis, and Biological Evaluation” (Journal of Medicinal Chemistry, 2025).
Positions of bridges follow the written chain, without caps; N, C: chain ends. Non-standard residues stand in square brackets, D forms with d. Residues, ends and D or L forms follow the SMILES beside them. dCha = N[C@H](CC1CCCCC1)C(=O)O

Test system: MRSA DM21455
Test: Cytoplasmic membrane potential DiSC3(5) assay
Assay type: cell-based, Staphylococcus aureus
Conditions: 1× to 16× MIC, 1 h, room temperature, ex 622/em 670 nm; pronounced at 4× MIC
Experimental: To determine whether the bactericidal activity of analogue 12 is linked to bacterial membrane perturbations, we performed a DiSC3(5) assay, which utilizes a membrane-potential-sensitive dye to assess cytoplasmic membrane depolarization of MRSA. […]
day, cells were treated in triplicates with increasing concentrations of Novltex analogue 12, as indicated in the corresponding figure and the figure legend (Figure 4A-C). Cells were treated with 1 µM Staurosporine (MedChemExpress #HY-15141) as a positive kill control. Cell viability assessed after 24 h or 48 h incubation using an MTS-based CellTiter 96® AQueous One Solution Cell Proliferation Assay (Promega #G3582, Southampton UK) as per manufacturer’s instructions. Absorbance was recorded at 490 nm. Relative cell viability was determined by subtracting the blank (cell culture medium and MTS only) from individual values before normalizing against the untreated control.
Anonymized human blood samples were received from the Health Sciences Authority, Singapore and used as per the institutional guidelines and approved by the Institutional Review Board (IRB -2023-1019) of Nanyang Technological University Singapore. […] The supernatant was transferred to a new 96-well microplate and the absorbance was measured at 576 nm in the Infinite M200 monochromator microplate reader (Tecan Group Ltd., Switzerland). […]

With `CC(C)C[C@@H]1NC(=O)[C@H](C)NC(=O)[C@H](NC(=O)[C@H](CO)NC(=O)[C@@H](CCCCN)NC(=O)[C@@H](CC2CCCCC2)NC(=O)[C@@H](N)Cc2ccccc2)[C@H](C)OC(=O)[C@H](CC(C)C)NC1=O` [analogue 12, Leu2Cha–Novltex] (H-F[dCha][dK]S[dT]ALL; ester 5-C) the “change in DiSC3(5) fluorescence intensity (membrane depolarization)” value was “substantial increase in fluorescence intensity”.
